Results as given in the supplement of paper PMC10307832.

How the values were obtained:
Assay in all cases: relative viability (nuclei count vs DMSO), 5 days (fraction); higher = more cells survive
NCI-H322M = test system: NCI-H322M
Procedure, shortened: (§1)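 Lung cancer cell lines were seeded in 1536-well plates and dosed by pin tool the next day, with either a single drug or a fixed anchor-drug dose combined with five library-drug doses (not always all listed) spaced in √10 steps. Five days later, one step fixed the cells and stained their nuclei (final 0.05% Triton X-100, 1% formaldehyde, 1 ug/ml Hoechst), and nuclei were counted on 4× images. Relative viability is the nuclei count in treated wells divided by the count in vehicle wells, and each value is the median of duplicate plates.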

UMC-11 = test system: UMC-11
Procedure, shortened: as §1

NCI-H1563 = test system: NCI-H1563
Procedure, shortened: as §1

ABC-1 = test system: ABC-1
Procedure, shortened: as §1

NCI-H1395 = test system: NCI-H1395
Procedure, shortened: as §1

NCI-H1792 = test system: NCI-H1792
Procedure, shortened: as §1

NCI-H2087 = test system: NCI-H2087
Procedure, shortened: as §1

LCLC-103H = test system: LCLC-103H
Procedure, shortened: as §1

LK-2 = test system: LK-2
Procedure, shortened: as §1

A-427 = test system: A-427
Procedure, shortened: as §1

NCI-H1666 = test system: NCI-H1666
Procedure, shortened: as §1

PC-14 = test system: PC-14
Procedure, shortened: as §1

NCI-H23 = test system: NCI-H23
Procedure, shortened: as §1

NCI-H1651 = test system: NCI-H1651
Procedure, shortened: as §1

H3255 = test system: H3255
Procedure, shortened: as §1

CAL-12T = test system: CAL-12T
Procedure, shortened: as §1

NCI-H838 = test system: NCI-H838
Procedure, shortened: as §1

NCI-H661 = test system: NCI-H661
Procedure, shortened: as §1

NCI-H2228 = test system: NCI-H2228
Procedure, shortened: as §1

NCI-H2085 = test system: NCI-H2085
Procedure, shortened: as §1

NCI-H358 = test system: NCI-H358
Procedure, shortened: as §1

NCI-H1355 = test system: NCI-H1355
Procedure, shortened: as §1

With `COCC1(CO)C(=O)C2CCN1CC2` (stereo unspecified) [PRIMA-1MET] + Cc1nc(Nc2ncc(C(=O)Nc3c(C)cccc3Cl)s2)cc(N2CCN(CCO)CC2)n1 [Dasatinib] (partner 0.075 µM) as the molecule, how does the relative viability (NCI-H322M; first compound 0.2 µM) read?
Its relative viability is 0.265.

And the relative viability (NCI-H322M; first compound 0.6325 µM)?
The relative viability was 0.258.

What about the relative viability (NCI-H322M; first compound 6.325 µM) of the same molecule?
Its relative viability is 0.243.

What about the relative viability (NCI-H322M; first compound 20 µM) of the same molecule?
The relative viability was 0.0311.

And the relative viability (UMC-11; first compound 0.2 µM)?
Its relative viability is 0.53.

What about the relative viability (UMC-11; first compound 0.6325 µM) of the same molecule?
Its relative viability is 0.466.

And the relative viability (UMC-11; first compound 2 µM)?
Its relative viability is 0.504.

And the relative viability (UMC-11; first compound 6.325 µM)?
Its relative viability is 0.464.

And the relative viability (UMC-11; first compound 20 µM)?
Its relative viability is 0.444.

What about the relative viability (NCI-H1563; first compound 0.2 µM) of the same molecule?
The relative viability was 0.502.

And the relative viability (NCI-H1563; first compound 0.6325 µM)?
Its relative viability is 0.426.

What about the relative viability (NCI-H1563; first compound 6.325 µM) of the same molecule?
The relative viability was 0.548.

And the relative viability (NCI-H1563; first compound 20 µM)?
The relative viability was 0.422.

What about the relative viability (ABC-1; first compound 0.2 µM) of the same molecule?
The relative viability was 0.705.

And the relative viability (ABC-1; first compound 0.6325 µM)?
The relative viability was 0.539.

What about the relative viability (ABC-1; first compound 2 µM) of the same molecule?
Its relative viability is 0.58.

And the relative viability (ABC-1; first compound 6.325 µM)?
The relative viability was 0.451.

What about the relative viability (ABC-1; first compound 20 µM) of the same molecule?
Its relative viability is 0.279.

And the relative viability (NCI-H1395; first compound 0.2 µM)?
Its relative viability is 0.409.

And the relative viability (NCI-H1395; first compound 0.6325 µM)?
The relative viability was 0.458.

What about the relative viability (NCI-H1395; first compound 2 µM) of the same molecule?
Its relative viability is 0.493.

And the relative viability (NCI-H1395; first compound 6.325 µM)?
Its relative viability is 0.38.

What about the relative viability (NCI-H1395; first compound 20 µM) of the same molecule?
The relative viability was 0.396.

What about the relative viability (NCI-H1792; first compound 0.2 µM) of the same molecule?
Its relative viability is 0.816.

And the relative viability (NCI-H1792; first compound 0.6325 µM)?
The relative viability was 0.717.

What about the relative viability (NCI-H1792; first compound 2 µM) of the same molecule?
The relative viability was 0.811.

And the relative viability (NCI-H1792; first compound 6.325 µM)?
Its relative viability is 0.883.

And the relative viability (NCI-H1792; first compound 20 µM)?
The relative viability was 0.754.

What about the relative viability (NCI-H2087; first compound 0.2 µM) of the same molecule?
Its relative viability is 0.471.

And the relative viability (NCI-H2087; first compound 0.6325 µM)?
The relative viability was 0.727.

What about the relative viability (NCI-H2087; first compound 2 µM) of the same molecule?
Its relative viability is 0.626.

What about the relative viability (NCI-H2087; first compound 6.325 µM) of the same molecule?
The relative viability was 0.876.

And the relative viability (NCI-H2087; first compound 20 µM)?
Its relative viability is 0.289.

What about the relative viability (LCLC-103H; first compound 0.2 µM) of the same molecule?
Its relative viability is 0.566.

What about the relative viability (LCLC-103H; first compound 0.6325 µM) of the same molecule?
Its relative viability is 0.422.

And the relative viability (LCLC-103H; first compound 2 µM)?
Its relative viability is 0.431.

And the relative viability (LCLC-103H; first compound 6.325 µM)?
The relative viability was 0.447.

What about the relative viability (LCLC-103H; first compound 20 µM) of the same molecule?
The relative viability was 0.342.

And the relative viability (LK-2; first compound 0.2 µM)?
Its relative viability is 0.275.

And the relative viability (LK-2; first compound 0.6325 µM)?
Its relative viability is 0.223.

And the relative viability (LK-2; first compound 2 µM)?
Its relative viability is 0.329.

What about the relative viability (LK-2; first compound 6.325 µM) of the same molecule?
Its relative viability is 0.164.

What about the relative viability (LK-2; first compound 20 µM) of the same molecule?
The relative viability was 0.116.

What about the relative viability (A-427; first compound 0.2 µM) of the same molecule?
The relative viability was 0.547.

And the relative viability (A-427; first compound 0.6325 µM)?
The relative viability was 0.577.

And the relative viability (A-427; first compound 2 µM)?
Its relative viability is 0.721.

What about the relative viability (A-427; first compound 6.325 µM) of the same molecule?
The relative viability was 0.602.

What about the relative viability (A-427; first compound 20 µM) of the same molecule?
Its relative viability is 0.15.

And the relative viability (NCI-H1666; first compound 0.2 µM)?
The relative viability was 0.801.

And the relative viability (NCI-H1666; first compound 0.6325 µM)?
The relative viability was 0.79.

What about the relative viability (NCI-H1666; first compound 2 µM) of the same molecule?
The relative viability was 0.807.

What about the relative viability (NCI-H1666; first compound 6.325 µM) of the same molecule?
Its relative viability is 0.846.

And the relative viability (NCI-H1666; first compound 20 µM)?
The relative viability was 0.639.

What about the relative viability (PC-14; first compound 0.2 µM) of the same molecule?
Its relative viability is 0.249.

And the relative viability (PC-14; first compound 0.6325 µM)?
Its relative viability is 0.249.

What about the relative viability (PC-14; first compound 2 µM) of the same molecule?
The relative viability was 0.276.

And the relative viability (PC-14; first compound 6.325 µM)?
Its relative viability is 0.249.

And the relative viability (PC-14; first compound 20 µM)?
Its relative viability is 0.0176.

What about the relative viability (NCI-H23; first compound 0.2 µM) of the same molecule?
Its relative viability is 0.692.

What about the relative viability (NCI-H23; first compound 0.6325 µM) of the same molecule?
The relative viability was 0.799.

What about the relative viability (NCI-H23; first compound 2 µM) of the same molecule?
Its relative viability is 0.687.

What about the relative viability (NCI-H23; first compound 6.325 µM) of the same molecule?
The relative viability was 0.721.

What about the relative viability (NCI-H23; first compound 20 µM) of the same molecule?
Its relative viability is 0.221.

And the relative viability (NCI-H1651; first compound 0.2 µM)?
The relative viability was 0.455.

What about the relative viability (NCI-H1651; first compound 0.6325 µM) of the same molecule?
Its relative viability is 0.468.

And the relative viability (NCI-H1651; first compound 2 µM)?
The relative viability was 0.423.

And the relative viability (NCI-H1651; first compound 6.325 µM)?
The relative viability was 0.415.

And the relative viability (NCI-H1651; first compound 20 µM)?
Its relative viability is 0.432.

What about the relative viability (H3255; first compound 0.2 µM) of the same molecule?
The relative viability was 0.285.

And the relative viability (H3255; first compound 0.6325 µM)?
The relative viability was 0.439.

And the relative viability (H3255; first compound 2 µM)?
The relative viability was 0.487.

What about the relative viability (H3255; first compound 6.325 µM) of the same molecule?
The relative viability was 0.373.

What about the relative viability (H3255; first compound 20 µM) of the same molecule?
Its relative viability is 0.28.

What about the relative viability (CAL-12T; first compound 0.2 µM) of the same molecule?
Its relative viability is 0.34.

And the relative viability (CAL-12T; first compound 0.6325 µM)?
Its relative viability is 0.341.

What about the relative viability (CAL-12T; first compound 2 µM) of the same molecule?
The relative viability was 0.456.

What about the relative viability (CAL-12T; first compound 6.325 µM) of the same molecule?
The relative viability was 0.364.

What about the relative viability (CAL-12T; first compound 20 µM) of the same molecule?
The relative viability was 0.0829.

What about the relative viability (NCI-H838; first compound 0.2 µM) of the same molecule?
The relative viability was 0.31.

And the relative viability (NCI-H838; first compound 0.6325 µM)?
The relative viability was 0.279.

What about the relative viability (NCI-H838; first compound 6.325 µM) of the same molecule?
Its relative viability is 0.279.

And the relative viability (NCI-H838; first compound 20 µM)?
Its relative viability is 0.456.

And the relative viability (NCI-H661; first compound 0.2 µM)?
Its relative viability is 0.858.

And the relative viability (NCI-H661; first compound 0.6325 µM)?
Its relative viability is 0.733.

What about the relative viability (NCI-H661; first compound 2 µM) of the same molecule?
Its relative viability is 0.89.

And the relative viability (NCI-H661; first compound 6.325 µM)?
Its relative viability is 0.883.

What about the relative viability (NCI-H661; first compound 20 µM) of the same molecule?
The relative viability was 0.796.

And the relative viability (NCI-H2228; first compound 0.2 µM)?
Its relative viability is 0.638.

What about the relative viability (NCI-H2228; first compound 0.6325 µM) of the same molecule?
Its relative viability is 0.399.

What about the relative viability (NCI-H2228; first compound 2 µM) of the same molecule?
Its relative viability is 0.541.

And the relative viability (NCI-H2228; first compound 6.325 µM)?
Its relative viability is 0.392.

And the relative viability (NCI-H2228; first compound 20 µM)?
The relative viability was 0.0268.

What about the relative viability (NCI-H2085; first compound 0.2 µM) of the same molecule?
Its relative viability is 0.248.

What about the relative viability (NCI-H2085; first compound 0.6325 µM) of the same molecule?
Its relative viability is 0.23.

What about the relative viability (NCI-H2085; first compound 2 µM) of the same molecule?
The relative viability was 0.249.

What about the relative viability (NCI-H2085; first compound 6.325 µM) of the same molecule?
The relative viability was 0.248.

And the relative viability (NCI-H2085; first compound 20 µM)?
The relative viability was 0.192.

And the relative viability (NCI-H358; first compound 0.2 µM)?
The relative viability was 0.186.

And the relative viability (NCI-H358; first compound 2 µM)?
Its relative viability is 0.174.

What about the relative viability (NCI-H358; first compound 6.325 µM) of the same molecule?
The relative viability was 0.178.

And the relative viability (NCI-H358; first compound 20 µM)?
Its relative viability is 0.0822.

What about the relative viability (NCI-H1355; first compound 0.2 µM) of the same molecule?
Its relative viability is 0.793.

What about the relative viability (NCI-H1355; first compound 0.6325 µM) of the same molecule?
Its relative viability is 0.571.

What about the relative viability (NCI-H1355; first compound 2 µM) of the same molecule?
Its relative viability is 0.785.

And the relative viability (NCI-H1355; first compound 6.325 µM)?
The relative viability was 0.766.

What about the relative viability (NCI-H1355; first compound 20 µM) of the same molecule?
The relative viability was 0.657.
